Test results reported in US7868135B2, “Compositions of lipopeptide antibiotic derivatives and methods of use thereof” (priority 2003, dated 2011).

Legend:
[1] = tested on: Streptococcus pneumoniae SPN0023 (PRSP); test: Broad spectrum MIC, Table 17/18 column K; assay type: cell-based; conditions: condition K of Table 17, in µg/mL
Outline: (§1)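 Minimum inhibitory concentration determined by microdilution in broth under several media conditions, the base being cation-adjusted Mueller-Hinton with 0.625 mM calcium. Incubation: roughly 37° C, 24 hours.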

[2] = tested on: Staphylococcus epidermidis SEP0375 (MRSE); test: Broad spectrum MIC, Table 17/18 column I; assay type: cell-based; conditions: condition I of Table 17, in µg/mL
Outline: as §1

[3] = tested on: Staphylococcus aureus SAU0017 (MSSA); test: Broad spectrum MIC, Table 17/18 columns E, F (+ 0.625 mM calcium; + calcium and 30% bovine serum); assay type: cell-based; conditions: in µg/mL; for MIC, media condition E: condition E: + 0.625 mM calcium; for MIC, media condition F: condition F: + calcium and 30% bovine serum
Outline: as §1

[4] = tested on: Enterococcus faecalis EFS0004 (VSE); test: Broad spectrum MIC, Table 17/18 B, C, D (CAMHB; + 0.625 mM calcium; + calcium and 30% bovine serum); assay type: cell-based; conditions: in µg/mL; for MIC, media condition B: condition B: CAMHB; for MIC, media condition C: condition C: + 0.625 mM calcium; for MIC, media condition D: condition D: + calcium and 30% bovine serum
Outline: as §1

[5] = tested on: Streptococcus pneumoniae SPN0002 (PISP); test: Broad spectrum MIC, Table 17/18 column J; assay type: cell-based; conditions: condition J of Table 17, in µg/mL
Outline: as §1

[6] = tested on: Streptococcus pyogenes SPY0001 (PenS); test: Broad spectrum MIC, Table 17/18 column M; assay type: cell-based; conditions: condition M of Table 17, in µg/mL
Outline: as §1

[7] = tested on: Streptococcus pneumoniae SPN0032 (PSSP); test: Broad spectrum MIC, Table 17/18 column L; assay type: cell-based; conditions: condition L of Table 17, in µg/mL
Outline: as §1

[8] = tested on: Enterococcus faecium EFM0101 (VRE, MDR); test: Broad spectrum MIC, Table 17/18 column A; assay type: cell-based; conditions: condition A of Table 17, in µg/mL
Outline: as §1

[9] = tested on: Staphylococcus aureus SAU0031 (VISA); test: Broad spectrum MIC, Table 17/18 column G; assay type: cell-based; conditions: condition G of Table 17, in µg/mL
Outline: as §1

[10] = tested on: Staphylococcus aureus SAU0065 (MRSA); test: Broad spectrum MIC, Table 17/18 column H; assay type: cell-based; conditions: condition H of Table 17, in µg/mL
Outline: as §1

[11] = tested on: S. aureus Smith (SAU0017, ATCC 19636); test: Intraperitoneal murine model of protection against infection (ED50, Table 21); assay type: in vivo, Staphylococcus aureus; conditions: Swiss CD1 mice infected i.p., compound i.v.
[12] = In vivo half-life after single i.v. administration, mice; conditions: female, Swiss CD1, mouse, plasma, iv, 10 mg/kg
Method: Yet other exemplary in vivo models can be used to characterize the pharmacokinetics and pharmacodynamic parameters of antimicrobial compounds of this disclosure. Some parameters that can be measured include an in vivo half-life of a compound, elimination rate and clearance, volume of distribution, and bioavailability. For example, briefly, compounds can be administered as a single i.v. or oral (p.o.) dose in mice or rats. At various time points (ranging from 1 minute to 72 hours), blood from treated animals is collected and the concentration of lipopeptide derivative in the ex vivo plasma can be quantified by, for example, liquid chromatography with mass spectrometric detection (LC/MS). After quantification, pharmacokinetics parameters can be calculated using methods known in the art, such as a one compartment model with mono-exponential decay and linear regression analysis (see, e.g., Fantin et al., Antimicrob. Agents Chemotherap. 35: 1413. 1991).
A pharmacokinetic parameter that can be measured, and which aids in determining efficacy, after a single i.v. administration of an antimicrobial lipopeptide derivative of the instant disclosure is the systemic half-life of the compound. Briefly, test compounds were dissolved in a 5% mannitol solution (pH was then adjusted) to a concentration of 1 mg/mL (w/v). A single intravenous injection in the lateral caudal vein of Swiss CD1 mice (5 to 6 weeks old, female) or Sprague Dawley rats (male) was used to administer the lipopeptide derivative at a final dose of 10 mg/kg. At various time points (ranging from about 4 minutes to about 24 hours for mice, and 48 or 72 hours for rats) mice were sacrificed and blood was harvested. The concentration of lipopeptide derivative in ex vivo plasma was quantified using liquid chromatography (LC) with mass spectrometric detection (MS).

[13] = tested on: E. faecalis EFS0040 (clinical isolate); test: Intraperitoneal murine model of protection against infection (ED50, Table 21); assay type: in vivo, Enterococcus faecalis; conditions: Swiss CD1 mice infected i.p., compound i.v.

| Structure (SMILES) | MIC, media condition K [1] | MIC, media condition I [2] | MIC, media condition E [3] | MIC, media condition F [3] | MIC, media condition B [4] | MIC, media condition C [4] | MIC, media condition D [4] | MIC, media condition J [5] | MIC, media condition M [6] | MIC, media condition L [7] | MIC, media condition A [8] | MIC, media condition G [9] | MIC, media condition H [10] | ED50 in Mice, S. aureus (SAU0017) [11] [mg/kg] | half-life [12] [h] | ED50 in Mice, E. faecalis (EFS0040) [13] [mg/kg] |
| --- | --- | --- | --- | --- | --- | --- | --- | --- | --- | --- | --- | --- | --- | --- | --- | --- |
| CCCCCCCCCCCCCCC(=O)NC(CC(=O)O)C(=O)NC1C(=O)N2CCCCC2C(=O)NC(C(C)C(=O)O)C(=O)NC(CC(=O)O)C(=O)NCC(=O)NC(CC(=O)O)C(=O)NCC(=O)NC(C(C)NC(=O)CNC(=O)[C@@H](N)CCCCN)C(=O)NC(C(C)C)C(=O)N2CCCC2C(=O)NC1C (some centres unmarked) [Compound 4, C15-Amphomycin-9-Gly-Lys] | 0.25 | 1-2 | 0.5-1 | 4 | 1-4 | 1-2 | >64 | 0.25 | 0.25 | 0.25-0.5 | 1 | 8 | 1-4 | 6.2 | 0.752 |  |
| CCCCCCCCCCCCCCC(=O)NC(CC(=O)O)C(=O)NC1C(=O)N2CCCCC2C(=O)NC(C(C)C(=O)O)C(=O)NC(CC(=O)O)C(=O)NCC(=O)NC(CC(=O)O)C(=O)NCC(=O)NC(C(C)NC(=O)CCN)C(=O)NC(C(C)C)C(=O)N2CCCC2C(=O)NC1C (stereo not drawn) [Compound 147, C15-Amphomycin-9-(β-Ala)] | 0.125 | 0.5-1 | 0.25-0.5 | 2 | 2 | 0.5-1 | 32 | 0.125 | 0.125 | 0.125 | 0.5-1 | 2 | 1 | 6.5 | 8.02 | 0.8 |
| CCCCCCCCCCCCCCC(=O)NC(CC(=O)O)C(=O)NC1C(=O)N2CCCCC2C(=O)NC(C(C)C(=O)O)C(=O)NC(CC(=O)O)C(=O)NCC(=O)NC(CC(=O)O)C(=O)NCC(=O)NC(C(C)NC(=O)CN(C)C(=O)[C@@H](N)CCCCN)C(=O)NC(C(C)C)C(=O)N2CCCC2C(=O)NC1C (some centres unmarked) [Compound 199, C15-Amphomycin-9-Sar-Lys] | 0.25 | 0.5-1 | 0.25-1 | 4-8 | 1-2 | 1-2 | 64 | 0.25 | 0.25 | 0.25-0.5 | 0.5-1 | 4-8 | 1-2 | 8 | 6.18 | 3 |
